Data published in article PMC7961380, “A Systematic Study of the In Vitro Pharmacokinetics and Estimated Human In Vivo Clearance of Indole and Indazole-3-Carboxamide Synthetic Cannabinoid Receptor Agonists Detected on the Illicit Drug Market” (Molecules, 2021).
Like-named read-outs stand apart in the source and are kept apart here.

What was measured:
[1] = Short-term plasma stability with and without esterase inhibitors; details: 3 h, 37 °C; for Parent Compound Remaining (%), Esterase Inhibitors: pH 7.4, BNPP and PMSF 500 µM each; for Parent Compound Remaining (%), No Esterase Inhibitors: pH 7.4, pooled human plasma
[2] = Metabolic stability, pooled human liver microsome incubations; details: for Predicted In Vivo Hepatic Clearance, CLH: from pHLM CLint, well-stirred model with plasma fu, Q 21 mL min^−1 kg^−1; for T1/2: pHLM 0.5 mg mL^−1, 0.5 µM, NADPH, 37 °C; for T1/2 / Microsomal Intrinsic Clearance, CLint micr: n ≥ 3 ± SD
[3] = Plasma protein binding by equilibrium dialysis; format: in vitro ADME, human; details: 37 °C; for fraction unbound at 5 h, 10 µg mL^−1: human, pooled human plasma, pH 7.4, equilibrium dialysis 5 h
Protocol: Plasma protein binding was assessed by equilibrium dialysis in a 96-well dialysis block (HTDialysis, Ledyard, CT, USA). Dialysis membranes (12–14 kDa) were soaked in deionised water for at least 60 min. Membranes were soaked overnight at 4 °C in ethanol:water 20:80% v/v and then rinsed with deionised water immediately prior to use. […] Spiked plasma (150 µL) was dialysed against isotonic phosphate buffer (pH 7.4) (150 µL) for 5 h at 37 °C with shaking at 100 rpm. Thermal degradation controls for each test compound were kept at 37 °C and 4 °C. Blank control plasma and buffer were included in the incubation. Following incubation, dialysed plasma samples and thermal degradation controls (50 µL) were added to drug-free buffer (50 µL), and dialysed buffer samples (50 µL) were added to drug-free plasma (50 µL). […] Supernatant (150 µL) was added to 50 µL deionised water and samples were analysed by UPLC-MS/MS as described above. Dialysed buffer from each well was tested for protein contamination using BCA protein assay reagent to determine whether membranes had been compromised.
Bu = Analyte/IS ratio determined in buffer side (2) Fraction unbound, fu=(100−% bound)/100

[4] = system: pooled human cryopreserved hepatocytes (pHHeps); assay: Metabolic stability, pooled human cryopreserved hepatocyte incubations; details: for Predicted In Vivo Hepatic Clearance, CLH: from pHHeps CLint, well-stirred model with plasma fu, Q 21 mL min^−1 kg^−1; for T1/2: pHHeps 0.25 million cells mL^−1, 0.5 µM, 37 °C, n ≥ 3 ± SD; for Intrinsic clearance, CLint: alternative hepatocyte cell density 99x10^6 hepatocytes per gram liver
[5] = pHLM, alternative microsomal scaling factor 32 mg microsomal protein per gram liver
[6] = pHLM, alternative microsomal scaling factor 45 mg microsomal protein per gram liver
[7] = pHLM, scaling factor 32 mg microsomal protein per gram liver
[8] = pHLM, scaling factor 45 mg microsomal protein per gram liver
[9] = pHHeps, 99x10^6 hepatocytes per gram liver

COC(=O)[C@H](NC(=O)c1nn(CCCCCF)c2ccccc12)C(C)(C)C [(R)-5F-MDMB-PINACA (2), methyl 2-[1-(5-fluoropentyl)-1H-indazole-3-carboxamido]-3,3-dimethylbutanoate]
Parent Compound Remaining (%), Esterase Inhibitors [1]: 100.1 ± 7.0% | Parent Compound Remaining (%), No Esterase Inhibitors [1]: 95.9 ± 6.7% | Predicted In Vivo Hepatic Clearance, CLH [2]: 0.391 ± 0.0366 L/h/kg | Hepatic extraction ratio, EH ([2]; from pHLM incubations): 0.31 ± 0.029 | T1/2 [2]: 8.0 ± 1.1 min | % parent compound remaining, Average ([2]; pHLM, 3 min): 71.1% | % parent compound remaining, Average ([2]; pHLM, 6 min): 58.2% | % parent compound remaining, Average ([2]; pHLM, 9 min): 44.4% | % parent compound remaining, Average ([2]; pHLM, 15 min): 28.9% | % parent compound remaining, Average ([2]; pHLM, 30 min): 8.7% | Intrinsic clearance, CLint [2, 5]: 8.7 L/h/kg | Intrinsic clearance, CLint [2, 6]: 12.2 L/h/kg | Microsomal Intrinsic Clearance, CLint micr ([2]; pHLM): 0.176 ± 0.024 mL min^−1 mg Microsomal Protein^−1 | Hepatic extraction ratio, EH [2, 7]: 0.22 ± 0.023 | Predicted in vivo hepatic clearance, CLH [2, 7]: 0.272 ± 0.0288 L/h/kg | Hepatic extraction ratio, EH [2, 8]: 0.28 ± 0.027 | Predicted in vivo hepatic clearance, CLH [2, 8]: 0.351 ± 0.0342 L/h/kg | fraction unbound at 5 h, 10 µg mL^−1 ([3]; 10 µg mL^−1, read-out: PPB (%) (converted)): 0.04 | fraction unbound at 5 h, 10 µg mL^−1 ([3]; plasma, read-out: Fraction Unbound (fu)): 0.04 ± 0.0058 | Predicted In Vivo Hepatic Clearance, CLH [4]: 0.49 ± 0.0228 L/h/kg | Hepatic extraction ratio, EH ([4]; from pHHeps incubations): 0.39 ± 0.018 | half-life ([4]; pHHep lot HUE50-N): 22.9 ± 1.8 min | half-life ([4]; pHHep lot HUE50-P): 6.5 ± 0.13 min | T1/2 [4]: 23 ± 1.8 min | Hepatic extraction ratio, EH [4, 9]: 0.37 ± 0.018 | Predicted in vivo hepatic clearance, CLH [4, 9]: 0.467 ± 0.0228 L/h/kg | % parent compound remaining, Average ([4]; pHHeps, 3 min): 84.1% | % parent compound remaining, Average ([4]; pHHeps, 6 min): 67.3% | % parent compound remaining, Average ([4]; pHHeps, 9 min): 55.7% | % parent compound remaining, Average ([4]; pHHeps, 15 min): 45.8% | % parent compound remaining, Average ([4]; pHHeps, 30 min): 27.3% | % parent compound remaining, Average ([4]; pHHeps, 45 min): 17.9% | % parent compound remaining, Average ([4]; pHHeps, 60 min): 13.6% | Intrinsic clearance, CLint ([4]; pHHeps): 18.5 ± 1.42 L/h/kg

C=CCCCn1cc(C(=O)N[C@@H](C(=O)OC)C(C)(C)C)c2ccccc21 [(R)-MDMB-4en-PICA (12), methyl 3,3-dimethyl-2-[1-(pent-4-en-1-yl)-1H-indole-3-carboxamido]butanoate]
Parent Compound Remaining (%), Esterase Inhibitors [1]: 87.7 ± 11.0% | Parent Compound Remaining (%), No Esterase Inhibitors [1]: 90.3 ± 5.4% | Predicted In Vivo Hepatic Clearance, CLH [2]: 0.589 ± 0.045 L/h/kg | Hepatic extraction ratio, EH ([2]; from pHLM incubations): 0.47 ± 0.036 | T1/2 [2]: 5.4 ± 0.74 min | % parent compound remaining, Average ([2]; pHLM, 3 min): 67.7% | % parent compound remaining, Average ([2]; pHLM, 6 min): 47.7% | % parent compound remaining, Average ([2]; pHLM, 9 min): 31.7% | % parent compound remaining, Average ([2]; pHLM, 15 min): 13.8% | % parent compound remaining, Average ([2]; pHLM, 30 min): 1.7% | Intrinsic clearance, CLint [2, 5]: 12.8 L/h/kg | Intrinsic clearance, CLint [2, 6]: 18 L/h/kg | Microsomal Intrinsic Clearance, CLint micr ([2]; pHLM): 0.260 ± 0.040 mL min^−1 mg Microsomal Protein^−1 | Hepatic extraction ratio, EH [2, 7]: 0.35 ± 0.033 | Predicted in vivo hepatic clearance, CLH [2, 7]: 0.439 ± 0.042 L/h/kg | Hepatic extraction ratio, EH [2, 8]: 0.43 ± 0.035 | Predicted in vivo hepatic clearance, CLH [2, 8]: 0.541 ± 0.0444 L/h/kg | PPB (%) ([3]; equilibrium dialysis 5 h, 10 µg mL^−1): 94.7 ± 1.11% | Fraction Unbound (fu) ([3]; equilibrium dialysis 5 h, plasma): 0.053 ± 0.0111 | Predicted In Vivo Hepatic Clearance, CLH [4]: 0.385 ± 0.0372 L/h/kg | Hepatic extraction ratio, EH ([4]; from pHHeps incubations): 0.31 ± 0.029 | T1/2 [4]: 44 ± 6.3 min | Hepatic extraction ratio, EH [4, 9]: 0.29 ± 0.028 | Predicted in vivo hepatic clearance, CLH [4, 9]: 0.365 ± 0.036 L/h/kg | % parent compound remaining, Average ([4]; pHHeps, 3 min): 90.1% | % parent compound remaining, Average ([4]; pHHeps, 6 min): 81.5% | % parent compound remaining, Average ([4]; pHHeps, 9 min): 83.7% | % parent compound remaining, Average ([4]; pHHeps, 15 min): 79.3% | % parent compound remaining, Average ([4]; pHHeps, 30 min): 61.6% | % parent compound remaining, Average ([4]; pHHeps, 45 min): 46.4% | % parent compound remaining, Average ([4]; pHHeps, 60 min): 40.6% | Intrinsic clearance, CLint ([4]; pHHeps): 9.72 ± 1.33 L/h/kg
